Consider 17 molecules from patent US20240358841A1, “NANOMATERIALS COMPRISING TETRAVALENT LIPID COMPOUNDS” (Beam Therapeutics Inc., priority 2021, published 2024).

The nature of data set [1]: LNP hydrodynamic diameter and polydispersity index by dynamic light scattering (DLS). As to conditions: LNP: 47.5% ionizable lipid, 40% cholesterol, 2.5% PEG-2000 DMG, 10% DPSC, N/P 4-8. Type of data set: physicochemical. The procedure:
(§1) LNPs were prepared with 47.5% Ionizable Lipid (e.g., a compound provided herein): 40% cholesterol: 2.5% PEG-2000 DMG; and 10% DPSC and an N/P ratio range of 4-8. LNPs were formed by microfluidic mixing of the lipid and NA solutions using a Precision Nanosystems NanoAssemblr Spark or Benchtop series Instruments, according to the manufacturers protocol. A ratio of aqueous to organic solvent of approximately 2:1 or 3:1 was maintained during mixing using differential flow rates. After mixing, LNPs were collected, diluted in phosphate buffer saline (PBS) or Tris-buffered saline (TBS) (approximately 1:1 v/v). Further buffer exchange was conducted using dialysis in PBS or TBS at 4° C. for 4 to 24 hours against a 20 kDa filter. After this initial dialysis, each individual LNP preparation was characterized via dynamic light scattering (DLS) to measure the size (e.g., diameter) and polydispersity. LNPs falling within specific diameter and polydispersity ranges were pooled, and further dialyzed against PBS or TBS at 4° C. for 1 to 4 hours against a 100 kDa dialysis cassette. After the second dialysis, LNPs were sterile filtered using 0.22 μm filter and stored at 4° C. for further use.
LNP hydrodynamic diameter and polydispersity index (PDI) were measured using high throughput dynamic light scattering (DLS) (Stunner, Unchained Labs). LNPs were diluted 1×TBS or PBS to an appropriate concentration and analyzed.

Data set [2] is described as follows: LNP encapsulation efficiency by Ribogreen assay. As to conditions: LNP: 47.5% ionizable lipid, 40% cholesterol, 2.5% PEG-2000 DMG, 10% DPSC, N/P 4-8. Type of data set: physicochemical. As to the method: as §1
RNA concentration and encapsulation efficiency were determined by Ribogreen assay (BioTek Synergy LX plate reader).

`CC/C=C\CCCCOC(CCC(=O)OCC(COC(=O)CCCCCOC(=O)C(CCCC)CCCCCC)(COC(=O)CCCCCOC(=O)C(CCCC)CCCCCC)COC(=O)OCC1CCCN(CC)C1)OCCCC/C=C\CC` (stereo not drawn) [Compound 7-58, ((2-(((4,4-bis(((Z)-oct-5-en-1-yl)oxy)butanoyl)oxy)methyl)-2-(((((1-ethylpiperidin-3-yl)methoxy)carbonyl)oxy)methyl)propane-1,3-diyl)bis(oxy))bis(6-oxohexane-6,1-diyl) bis(2-butyloctanoate)]: in data set [1], the “Mean Diameter (nm)” value was 77.7 nm and the “Mean PDI” value was determined as 0.15. In addition, the “Mean Encapsulation Efficiency (%)” value in data set [2] was found to be 90.1%.

On to `CC/C=C\CCCCOC(CCC(=O)OCC(COC(=O)CCCCCCCOC(=O)C(CCCC)CCCCCC)(COC(=O)CCCCCCCOC(=O)C(CCCC)CCCCCC)COC(=O)OCC1CCCN(CC)C1)OCCCC/C=C\CC` (stereo not drawn) [Compound 7-60, 2-(((4,4-bis(((Z)-oct-5-en-1-yl)oxy)butanoyl)oxy)methyl)-2-(((((1-ethylpiperidin-3-yl)methoxy)carbonyl)oxy)methyl)propane-1,3-diyl bis(8-((2-butyloctanoyl)oxy)octanoate)], for which, in data set [1], the “Mean Diameter (nm)” value is recorded as 86.6 nm and the “Mean PDI” value is listed as 0.14. The “Mean Encapsulation Efficiency (%)” value in data set [2] came out at 84.6%.

Consider `CC/C=C\CCCCOC(CCC(=O)OCC(COC(=O)CCCCCCOC(=O)C(CCCC)CCCCCC)(COC(=O)CCCCCCOC(=O)C(CCCC)CCCCCC)COC(=O)OCC1CCCN(CC)C1)OCCCC/C=C\CC` (stereo not drawn) [Compound 7-59, ((2-(((4,4-bis(((Z)-oct-5-en-1-yl)oxy)butanoyl)oxy)methyl)-2-(((((1-ethylpiperidin-3-yl)methoxy)carbonyl)oxy)methyl)propane-1,3-diyl)bis(oxy))bis(7-oxoheptane-7,1-diyl) bis(2-butyloctanoate)], for which, in data set [1], the “Mean Diameter (nm)” value was determined as 82.4 nm and the “Mean PDI” value is given as 0.15. Also, the “Mean Encapsulation Efficiency (%)” value in data set [2] came out at 86.7%.

Regarding `CC/C=C\CCCCOC(CCC(=O)OCC(COC(=O)CCCCCCC/C=C\C/C=C\CCCCC)(COC(=O)CCCCCCC/C=C\C/C=C\CCCCC)COC(=O)OCCCN(CC)CC)OCCCC/C=C\CC` [Compound 7-67, 2-(((4,4-bis(((Z)-oct-5-en-1-yl)oxy)butanoyl)oxy)methyl)-2-((((3-(diethylamino)propoxy)carbonyl)oxy)methyl)propane-1,3-diyl (9Z,9′Z,12Z,12′Z)-bis(octadeca-9,12-dienoate)], in data set [1], the “Mean Diameter (nm)” value amounted to 87.5 nm and the “Mean PDI” value worked out at 0.18. The “Mean Encapsulation Efficiency (%)” value in data set [2] amounted to 89.5%.

Take `CCCCC/C=C\CCOC(=O)CCCC(=O)OCC(COC(=O)CCCC(=O)OCC/C=C\CCCCC)(COC(=O)CCCC(=O)OCC/C=C\CCCCC)COC(=O)OCCCN(CC)CC` [Compound 7-37, O,O′-(2-((((3-(diethylamino)propoxy)carbonyl)oxy)methyl)-2-(((5-(((Z)-non-3-en-1-yl)oxy)-5-oxopentanoyl)oxy)methyl)propane-1,3-diyl) di((Z)-non-3-en-1-yl) diglutarate]: in data set [1], the “Mean Diameter (nm)” value was 119.7 nm and the “Mean PDI” value was found to be 0.11. Moreover, the “Mean Encapsulation Efficiency (%)” value in data set [2] is listed as 71.9%.

For the molecule `CC/C=C\CCCCOC(CCC(=O)OCC(COC(=O)CCCCCOC(=O)C(CCCC)CCCCCC)(COC(=O)CCCCCOC(=O)C(CCCC)CCCCCC)COC(=O)OCCCN(CC)CC)OCCCC/C=C\CC` (stereo not drawn) [Compound 7-55], in data set [1], the “Mean Diameter (nm)” value turned out to be 80.1 nm and the “Mean PDI” value stood at 0.13. The “Mean Encapsulation Efficiency (%)” value in data set [2] worked out at 87.5%.

Take `CC/C=C\CCCCOC(CCC(=O)OCC(COC(=O)CCCCCOC(=O)C(CCCC)CCCCCC)(COC(=O)CCCCCOC(=O)C(CCCC)CCCCCC)COC(=O)NCCN1CCCC1)OCCCC/C=C\CC` (stereo not drawn) [Compound 7-64, ((2-(((4,4-bis(((Z)-oct-5-en-1-yl)oxy)butanoyl)oxy)methyl)-2-((((2-(pyrrolidin-1-yl)ethyl)carbamoyl)oxy)methyl)propane-1,3-diyl)bis(oxy))bis(6-oxohexane-6,1-diyl) bis(2-butyloctanoate)]: in data set [1], the “Mean Diameter (nm)” value was 82.1 nm and the “Mean PDI” value is 0.13. The “Mean Encapsulation Efficiency (%)” value in data set [2] worked out at 90.4%.

For `CCCCC/C=C\CCOC(=O)CCCCCC(=O)OCC(COC(=O)CCCCCC(=O)OCC/C=C\CCCCC)(COC(=O)CC12CC3CC(CC(C3)C1)C2)COC(=O)OCCCN(CC)CC` [Compound 7-25, O′1,O1-(2-((2-((3r,5r,7r)-adamantan-1-yl)acetoxy)methyl)-2-((((3-(diethylamino)propoxy)carbonyl)oxy)methyl)propane-1,3-diyl) 7,7′-di((Z)-non-3-en-1-yl) di(heptanedioate)], in data set [1], the “Mean Diameter (nm)” value worked out at 123.1 nm and the “Mean PDI” value turned out to be 0.11. In data set [2], the “Mean Encapsulation Efficiency (%)” value was determined as 66.9%.

Regarding `CCCCC/C=C\CCOC(=O)CCCCCC(=O)OCC(COC(=O)CCCCCC(=O)OCC/C=C\CCCCC)(COC(=O)CCCN1CCCC1)COC(=O)CC12CC3CC(CC(C3)C1)C2` [Compound 7-53, O′1,O1-(2-((2-(adamantan-1-yl)acetoxy)methyl)-2-(((4-(pyrrolidin-1-yl)butanoyl)oxy)methyl)propane-1,3-diyl) 7,7′-di((Z)-non-3-en-1-yl) di(heptanedioate)], in data set [1], the “Mean Diameter (nm)” value was determined as 157.7 nm and the “Mean PDI” value was found to be 0.08. Moreover, in data set [2], the “Mean Encapsulation Efficiency (%)” value came to 43.3%.

In the case of `CC/C=C\CCCCOC(CCC(=O)OCC(COC(=O)CCCCCCC/C=C\C/C=C\CCCCC)(COC(=O)CCCCCCC/C=C\C/C=C\CCCCC)COC(=O)NCCN1CCCC1)OCCCC/C=C\CC` [Compound 7-70, 2-(((4,4-bis(((Z)-oct-5-en-1-yl)oxy)butanoyl)oxy)methyl)-2-((((2-(pyrrolidin-1-yl)ethyl)carbamoyl)oxy)methyl)propane-1,3-diyl (9Z,9′Z,12Z,12′Z)-bis(octadeca-9,12-dienoate)], in data set [1], the “Mean Diameter (nm)” value is 88.8 nm and the “Mean PDI” value is given as 0.13. Further, the “Mean Encapsulation Efficiency (%)” value in data set [2] is on record as 87.0%.

Take `CC/C=C\CCCCOC(CCC(=O)OCC(COC(=O)CCCCCCC/C=C\C/C=C\CCCCC)(COC(=O)CCCCCCC/C=C\C/C=C\CCCCC)COC(=O)OCCCN(C)CC)OCCCC/C=C\CC` [Compound 7-69, 2-(((4,4-bis(((Z)-oct-5-en-1-yl)oxy)butanoyl)oxy)methyl)-2-((((3-(ethyl(methyl)amino)propoxy)carbonyl)oxy)methyl)propane-1,3-diyl (9Z,9′Z,12Z,12′Z)-bis(octadeca-9,12-dienoate)]: in data set [1], the “Mean Diameter (nm)” value was 86.1 nm and the “Mean PDI” value stood at 0.15. The “Mean Encapsulation Efficiency (%)” value in data set [2] worked out at 88.5%.

Take `CC/C=C\CCCCOC(CCC(=O)OCC(COC(=O)CCCCCOC(=O)C(CCCC)CCCCCC)(COC(=O)CCCCCOC(=O)C(CCCC)CCCCCC)COC(=O)OCCCN(C)CC)OCCCC/C=C\CC` (stereo not drawn) [Compound 7-61]: in data set [1], the “Mean Diameter (nm)” value was found to be 76.1 nm and the “Mean PDI” value is 0.17. Also, the “Mean Encapsulation Efficiency (%)” value in data set [2] is given as 88.9%.

With `CC/C=C\CCCCOC(CCC(=O)OCC(COC(=O)CCCCCCOC(=O)C(CCCC)CCCCCC)(COC(=O)CCCCCCOC(=O)C(CCCC)CCCCCC)COC(=O)OCCCN(C)CC)OCCCC/C=C\CC` (stereo not drawn) [Compound 7-62], in data set [1], the “Mean Diameter (nm)” value turned out to be 80.2 nm and the “Mean PDI” value was found to be 0.14. Further, in data set [2], the “Mean Encapsulation Efficiency (%)” value amounted to 88.6%.

Take `CC/C=C\CCCCOC(CCC(=O)OCC(COC(=O)CCCCCCOC(=O)C(CCCC)CCCCCC)(COC(=O)CCCCCCOC(=O)C(CCCC)CCCCCC)COC(=O)NCCN1CCCC1)OCCCC/C=C\CC` (stereo not drawn) [Compound 7-65, ((2-(((4,4-bis(((Z)-oct-5-en-1-yl)oxy)butanoyl)oxy)methyl)-2-((((2-(pyrrolidin-1-yl)ethyl)carbamoyl)oxy)methyl)propane-1,3-diyl)bis(oxy))bis(7-oxoheptane-7,1-diyl) bis(2-butyloctanoate)]: in data set [1], the “Mean Diameter (nm)” value was 82.3 nm and the “Mean PDI” value turned out to be 0.15. Moreover, the “Mean Encapsulation Efficiency (%)” value in data set [2] is 89.2%.

On to `CC/C=C\CCCCOC(CCC(=O)OCC(COC(=O)CCCCCCOC(=O)C(CCCC)CCCCCC)(COC(=O)CCCCCCOC(=O)C(CCCC)CCCCCC)COC(=O)OCCCN(CC)CC)OCCCC/C=C\CC` (stereo not drawn) [Compound 7-56], for which, in data set [1], the “Mean Diameter (nm)” value is 78.2 nm and the “Mean PDI” value is 0.11. The “Mean Encapsulation Efficiency (%)” value in data set [2] was found to be 88.1%.

Consider `CC/C=C\CCCCOC(=O)CCCCCCC(=O)OCC(COC(=O)CCCCCCC(=O)OCCCC/C=C\CC)(COC(=O)CCCCCCC(=O)OCCCC/C=C\CC)COC(=O)NCCN1CCCC1` [Compound 7-18], for which, in data set [1], the “Mean Diameter (nm)” value turned out to be 153.0 nm and the “Mean PDI” value is 0.08. The “Mean Encapsulation Efficiency (%)” value in data set [2] was found to be 38.4%.

With `CC/C=C\CCCCOC(CCC(=O)OCC(COC(=O)CCCCCCCOC(=O)C(CCCC)CCCCCC)(COC(=O)CCCCCCCOC(=O)C(CCCC)CCCCCC)COC(=O)OCCCN(CC)CC)OCCCC/C=C\CC` (stereo not drawn) [Compound 7-57], in data set [1], the “Mean Diameter (nm)” value amounted to 81.0 nm and the “Mean PDI” value came to 0.17. In addition, the “Mean Encapsulation Efficiency (%)” value in data set [2] is given as 88.4%.
